The values below come from US20040102423A1, “Spironolactone and angiotensin II antagonist combination therapy for treatment of congestive heart failure” (G.D. Searle & Co., priority 1995, published 2004).

In one assay the test system is rabbit aortic rings. The assay can be described thus: Assay B: In vitro vascular smooth muscle response for AII (antagonist activity, pA2). The format is cell-based. The note with it: Oryctolagus cuniculus, two values in a cell = two determinations. On the procedure: Assay B: In Vitro Vascular Smooth Muscle-Response for AII
The compounds of the invention were tested for antagonist activity in rabbit aortic rings. Male New Zealand white rabbits (2-2.5 kg) were sacrificed using an overdose of pentobarbital and exsanguinated via the carotid arteries. The thoracic aorta was removed, cleaned of adherent fat and connective tissue and then cut into 3-mm ring segments. The endothelium was removed from the rings by gently sliding a rolled-up piece of filter paper into the vessel lumen. The rings were then mounted in a water-jacketed tissue bath, maintained at 37° C., between moveable and fixed ends of a stainless steel wire with the moveable end attached to an FT03 Grass transducer coupled to a Model 7D Grass Polygraph for recording isometric force responses. The bath was filled with 20 ml of oxygenated (95% oxygen/5% carbon dioxide) Krebs solution of the following composition (mM): 130 NaCl, 15 NaHCO3, […], 1.2 NaH2PO4, 1.2 MgSO4, 2.5 CaCl2, and 11.4 glucose. The preparations were equilibrated for one hour before approximately one gram of passive tension was placed on the rings. Angiotensin II concentration-response curves were then recorded (3×10^−10 to 1×10^−5 M). Each concentration of AII was allowed to elicit its maximal contraction, and then AII was washed out repeatedly for 30 minutes before rechallenging with a higher concentration of AII. Aorta rings were exposed to the test antagonist at 10^−5 M for 5 minutes before challenging with AII. Adjacent segments of the same aorta ring were used for all concentration-response curves in the presence or absence of the test antagonist. The effectiveness of the test compound was expressed in terms of pA2 values and were calculated according to H. O. Schild [Br. J. Pharmacol. Chemother., 2, 189-206 (1947)]. The pA2 value is […] which increases the EC50 value for AII by a factor of two. Each test antagonist was evaluated in aorta rings from two rabbits.

The target in assay [1] is angiotensin II AT1 receptor. The assay can be described thus: Assay A: Angiotensin II binding activity, rat uterine membrane preparation, 125I-AII displacement. The procedure:
Assay A: Antiotensin II Binding Activity
Compounds of the invention were tested for ability to bind to the smooth muscle angiotensin II receptor using a rat uterine membrane preparation. […] Rat uterine membranes were prepared from fresh tissue. All procedures were carried out at 4° C. Uteri were stripped of fat and homogenized in phosphate-buffered saline at pH 7.4 containing 5 mM EDTA. The homogenate was centrifuged at 1500×g for 20 min., and the supernatant was recentrifuged at 100,000×g for 60 min. The pellet was resuspended in buffer consisting of 2 mM EDTA and 50 mM Tris-HCl (pH 7.5) to a final protein concentration of 4 mg/ml. […] The reaction was initiated by the addition of membrane protein and the mixture was incubated at 25° C. for 60 min. The incubation was terminated with ice-cold 50 mM Tris-HCl (pH 7.5) and the mixture was filtered to separate membrane-bound labelled peptide from the free ligand. The incubation tube and filter were washed with ice-cold buffer. Filters were assayed for radioactivity in a Micromedic gamma counter. Nonspecific binding was defined as binding in the presence of 10 μM of unlabelled AII. Specific binding was calculated as total binding minus nonspecific binding. […] Binding data were analyzed by a nonlinear least-squares curve fitting program.

The next assay deals with pressor response to AII. The assay can be described thus: Assay C: In vivo intragastric pressor assay response for AII antagonists. The arrangement: species or system Sprague-Dawley rats. The conditions noted are these: in vivo pressor response, 3 mg/kg intragastrically; for inhibition in vivo at 3 mg/kg: Rattus norvegicus, po.

Each structure is given as a SMILES string. pIC50: −log10 of the molar value.

As a reminder, the Kb is the affinity of an antagonist, worked out from how it opposes an agonist. By pIC50 is commonly meant −log10 of the IC50, conventionally taken in molar units. High values mean a low IC50, low ones a high IC50. In the assay on rabbit aortic rings, `CCCCc1nn(/C(Cc2ccccc2)=C(/OCc2ccccc2)c2ccccc2)c(=O)n1Cc1ccc(-c2ccccc2-c2nn[nH]n2)cc1` [Compound 104] had a Kb of 10 nM. The pIC50 in assay [1] is 7.82.

Consider `CCCCc1nc(C2CCCCC2)nn1Cc1ccc(-c2ccccc2-c2nnn[nH]2)cc1` [Compound 77], for which the antagonist dissociation constant (Kb) with rabbit aortic rings was 1700 nM. In assay [1], this compound had a pIC50 of 4.82.

As to `CCCCc1nc(CCCC)n(Cc2ccc(-n3c(Cl)cc(Cl)c3-c3nnn[nH]3)cc2)n1` [Compound 154], the antagonist dissociation constant (Kb) with rabbit aortic rings was 6.46 nM. For the same compound, in assay [1], the pIC50 was 7.01.

For `CCCCc1nn(CCCCC(=O)O)c(=O)n1Cc1ccc(-c2ccccc2-c2nn[nH]n2)cc1` [Compound 114], the Kb in the assay on rabbit aortic rings was 398 nM. The compound further showed a pIC50 in assay [1] of 6.40.

`CCCCn1nc(C(F)CCC)nc1Cc1ccc(-c2ccccc2-c2nnn[nH]2)nc1` (centres unmarked) [Compound 172] showed an antagonist equilibrium constant (Kb) in the assay on rabbit aortic rings of 70.8 nM. Also, the negative-log IC50 (pIC50) in assay [1] is 7.15.

In turn, `CCCCc1nc(CC)n(Cc2ccc(-c3ccccc3-c3nnn[nH]3)cc2)n1` [Compound 51] showed an antagonist dissociation constant (Kb) in the assay with rabbit aortic rings of 4.07 nM. Moreover, in assay [1], the pIC50 is 8.06.

For `CCCCn1nc(C(=O)NC(C)(C)C)nc1Cc1ccc(-c2ccccc2-c2nnn[nH]2)nc1` [Compound 184], the Kb in the assay on rabbit aortic rings is 166 nM. For the same compound, the pIC50 in assay [1] was 5.96.

Regarding `CCCc1nc(CCC)n(Cc2ccc(-c3ccccc3-c3nnn[nH]3)nc2)n1` [Compound 257], the Kb in the assay on rabbit aortic rings was 234 nM. In assay [1], this compound gave a pIC50 of 6.80.

Consider `CCCCn1nc(C(C)=O)nc1Cc1ccc(-c2ccccc2-c2nnn[nH]2)nc1` [Compound 194], for which, in the assay on rabbit aortic rings, the Kb was 22.9 nM. In addition, the pIC50 in assay [1] was 7.33.

Take `CCCCc1nn(Cc2cccc3ccccc23)c(=O)n1Cc1ccc(-c2ccccc2-c2nn[nH]n2)cc1` [Compound 99]: the antagonist equilibrium constant (Kb) with rabbit aortic rings is 316 nM. This compound also had a pIC50 in assay [1] of 6.55.

With `CCCCc1nc(CCCC)n(Cc2ccc(-c3ccccc3C(=O)OC)cc2)n1` [Compound 12], in the assay on rabbit aortic rings, the Kb was 2.19 nM. Moreover, in assay [1], the negative-log IC50 (pIC50) was 8.22.

In the assay with rabbit aortic rings, `CCCCc1nc(-c2c(F)cccc2F)nn1Cc1ccc(-c2ccccc2-c2nnn[nH]2)nc1` [Compound 280] gave a Kb of 389 nM. Further, the pIC50 in assay [1] was 6.32.

As for `CCCCc1nc2cnncc2n1Cc1ccc(-c2ccccc2-c2nnn[nH]2)cc1` [Compound 128], the Kb with rabbit aortic rings was 2.34 nM.

The compound `CCCCc1cn(-c2ccccc2Cl)c(=O)n1Cc1ccc(-c2ccccc2-c2nnn[nH]2)cc1` [Compound 146] had a Kb with rabbit aortic rings of 398 nM. In addition, the pIC50 in assay [1] is 10.14.

Take `CCCCc1nn(CC(OCC(=O)O)c2ccccc2)c(=O)n1Cc1ccc(-c2ccccc2-c2nn[nH]n2)cc1` (centres unmarked) [Compound 102]: the antagonist dissociation constant (Kb) in the assay with rabbit aortic rings was 20 nM. In assay [1], this compound gave a pIC50 of 7.37.

`CCCCc1nn(C/C=C/c2ccccc2)c(=O)n1Cc1ccc(-c2ccccc2-c2nn[nH]n2)cc1` [Compound 116] gave a Kb in the assay with rabbit aortic rings of 316 nM. The pIC50 in assay [1] was 6.64.

`CCCCc1nc(C(F)(F)C(F)(F)C(F)(F)F)nn1Cc1ccc(-c2ccccc2-c2nnn[nH]2)cc1` [Compound 81]: the Kb in the assay with rabbit aortic rings is 10 nM.

As usually defined, the inhibition in vivo is the percentage by which the read-out fell short of the control. As to `CCCCc1nc(-c2ccccc2C)nn1Cc1ccc(-c2ccccc2-c2nnn[nH]2)nc1` [Compound 272], the pIC50 in assay [1] is 7.01. In the assay on pressor response to AII, testing at 3 mg/kg gave an inhibition in vivo of 70% and the “Assay C Duration” value was >180 min.

Compound `CCCCc1cn(-c2c(OC)cccc2OC)c(=O)n1Cc1ccc(-c2ccccc2-c2nnn[nH]2)nc1` [Compound 241] showed a pIC50 in assay [1] of 8.16. In addition, in the assay with pressor response to AII, the inhibition in vivo at 3 mg/kg turned out to be 40% and the “Assay C Duration” value is >180 min.

In assay [1], `CCn1nc(C(C)(F)F)nc1Cc1ccc(-c2ccccc2-c2nnn[nH]2)nc1` [Compound 175] showed a pIC50 of 7.57. In the assay with pressor response to AII, the inhibition in vivo at 3 mg/kg amounted to 0% and the “Assay C Duration” value was determined as 0 min.

In the case of `CCCCc1cn(CCc2ccccc2)c(=O)n1Cc1ccc(-c2ccccc2-c2nnn[nH]2)nc1` [Compound 221], the pIC50 in assay [1] was 8.32. Further, in the assay with pressor response to AII, testing at 3 mg/kg gave an inhibition in vivo of 25% and the “Assay C Duration” value is >180 min.
